How the values were obtained:
Format in all cases: cell-based
M1 muscarinic receptor = target: T1, M1 muscarinic receptor (Homo sapiens, UniProt P11229); assay: Functional mobilization of intracellular calcium (FLIPR), M1-CHO cells; settings: for Emax: 100% efficacy = maximum response obtained with the Carbachol control; for M1 Activity: M1-CHO cells, calcium mobilization (FLIPR)
T1 construct: expressed in transfected cells; host or cells: CHO (M1-CHO)
T1 sequence (P11229 1-460): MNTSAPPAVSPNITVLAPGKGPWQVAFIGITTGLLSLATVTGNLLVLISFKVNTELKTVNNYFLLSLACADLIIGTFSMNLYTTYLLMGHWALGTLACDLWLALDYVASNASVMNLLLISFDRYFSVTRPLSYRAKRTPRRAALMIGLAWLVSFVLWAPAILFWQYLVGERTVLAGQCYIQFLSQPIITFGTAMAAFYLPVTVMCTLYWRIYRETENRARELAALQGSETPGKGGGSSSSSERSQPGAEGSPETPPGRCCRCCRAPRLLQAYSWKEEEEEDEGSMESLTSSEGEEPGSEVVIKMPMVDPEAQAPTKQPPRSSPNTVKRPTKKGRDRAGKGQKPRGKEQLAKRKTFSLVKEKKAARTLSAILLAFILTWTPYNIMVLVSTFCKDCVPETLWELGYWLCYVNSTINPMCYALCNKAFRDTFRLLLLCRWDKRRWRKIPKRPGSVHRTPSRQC
Experimental: (§1) Functional Mobilization of Intracellular Calcium to Determine Muscarinic Receptor Activity:
(§2) CHO cells expressing muscarinic receptors (M1 to M5) are grown as monolayers in tissue culture flasks at 37° C. in a humidified atmosphere containing 5% CO2 and passaged every 3-5 days. The growth media is Dulbecco's modified eagles medium (DMEM, Gibco Cat #12430-054), containing 25 mM Hepes and supplemented with Fetal Bovine Serum (Hyclone, cat #SH30071.03), 0.1 mM of MEM non-essential amino acids (GIBCO, Cat #11140-050), 1 mM MEM Sodium Pyruvate (GIBCO Cat #11360-070) and 100 units/ml of Penicillin G and 100 μg/ml of Streptomycin (GIBCO Cat #15140-122). The recombinant muscarinic receptor cell lines are grown under antibiotic pressure with media containing 25 μg/ml zeocin and 500 μg/ml G418 (M1-CHO), 4 μg/ml puromycin, 50 μg/ml zeocin and 2.5 μg/ml blasticidin (M2 and M4-CHO) or 50 μg/ml zeocin and 4 μg/ml puromycin (M3 and M5-CHO).
(§3) Cells are harvested at 80-90% confluence using Versene (GIBCO Cat #15040-066), collected by centrifugation and seeded 18-24 hrs prior to running the calcium assay at a density of 5,000-10,000 cells/well in […], clear-bottomed 384-well plates (BD Biocoat, poly-D-lysine, Cat #356663). The day of the experiment, the cells are washed with a plate washer (Bioteck Instruments, ELX 405) using bath 1 buffer (140-mM NaCl, 4.5-mM KCl, 2-mM CaCl2, 1-mM MgCl2, 10-mM Hepes-Na, 10-mM Glucose, pH 7.4, with NaOH) containing 1 mM Probenecid. Next, the calcium dye Fluo-3 (25 μl/well of Fluo-3 AM at 4 μM, Molecular Probes F-1241, in Bath 1 buffer containing 1 mM Probenecid) is added to the 25 μl of Bath 1 remaining in each well after the plate wash and the dye is loaded at 37° C. in the tissue culture incubator for 60-90 min. The fluorescent dye is removed using the plate washer with Bath 1 containing 1 mM Probenecid, leaving 25 μl/well of this solution after the wash. Alternatively, cells can be loaded with the calcium indicator from Molecular Devices (Calcium 3 Assay Reagents, Cat #R7181) adding 5 μl of a 5× solution dye in Bath 1 containing 1 mM Probenecid (10 ml per dye flask cat #R7182 to generate a solution 20×) to 20 μl of the same buffer. After loading for 60 min, the experiment can be run without having to remove the dye.
(§4) Compounds are prepared at a 2× fold concentration in a 96-well plate (round bottom, Costar Corning cat #3656), by reconstituting the pre-spotted compounds in bath 1 containing 1 mM probenecid. The final concentration DMSO is 0.5%, and the amount of DMSO is normalized across the assay plate. To determine an agonist action of the compounds on muscarinic receptors, the reconstituted compounds are added (25 μl compound/well) to the cell assay plate (containing 25 μl/well) using the multi-channel robotic system of the FLIPR 3 Instrument (Molecular Devices, Sunnyvale, Calif.). To determine a functional inhibitory action of the compounds on muscarinic receptors, the reconstituted compounds are added (25 μl compound/well) to the assay plate and pre-incubated for 15 min prior to adding 25 μl of Carbachol at 3× the EC80 for each muscarinic subtype. Alternatively, the compounds can be co-applied simultaneously with the agonist. In both assay modes, the fluorescence is recorded for 60 sec (excitation wavelength is […] and emission wavelength 540 nm) using the FLIPR 3 instrument.
(§5) The potency, efficacy and selectivity of the muscarinic compounds were evaluated by screening the compound activity across the whole family (M1 to M5 cells). Compounds were also screened for activity on other proteins such as other GPCRs and ion channels to determine selectivity on M4 receptors.
(§6) Examples of activities and efficacies of the muscarinic compounds of formulae (I, Ia, Ib, and II) on modulating M1, M2, M3 and M4 receptors are shown below in Table 3. […]

M4 muscarinic receptor = target: T2, M4 muscarinic receptor (Homo sapiens, UniProt P08173); assay: Functional mobilization of intracellular calcium (FLIPR), M4-CHO cells; settings: for Emax: 100% efficacy = maximum response obtained with the Carbachol control; for M4 Activity: M4-CHO cells, calcium mobilization (FLIPR)
T2 construct: expressed in transfected cells; host or cells: CHO (M4-CHO)
T2 sequence (P08173 1-479): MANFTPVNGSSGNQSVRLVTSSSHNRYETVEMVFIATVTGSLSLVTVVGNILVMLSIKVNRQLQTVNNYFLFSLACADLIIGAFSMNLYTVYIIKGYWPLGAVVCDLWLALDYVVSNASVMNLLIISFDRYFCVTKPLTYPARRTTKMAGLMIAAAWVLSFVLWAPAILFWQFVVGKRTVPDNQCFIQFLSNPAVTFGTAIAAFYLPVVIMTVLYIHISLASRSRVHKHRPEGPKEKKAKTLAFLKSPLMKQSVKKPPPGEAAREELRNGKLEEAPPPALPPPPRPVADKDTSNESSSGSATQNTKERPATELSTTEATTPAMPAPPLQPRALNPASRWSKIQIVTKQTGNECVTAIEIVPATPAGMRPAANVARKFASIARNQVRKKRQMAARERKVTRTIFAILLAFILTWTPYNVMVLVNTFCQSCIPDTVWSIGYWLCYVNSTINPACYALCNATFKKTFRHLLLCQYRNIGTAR
Experimental: as §1, §2, §3, §4, §5, §6

M2 muscarinic receptor = target: T3, M2 muscarinic receptor (Homo sapiens, UniProt P08172); assay: Functional mobilization of intracellular calcium (FLIPR), M2-CHO cells; settings: for Emax: 100% efficacy = maximum response obtained with the Carbachol control; for M2 Activity: M2-CHO cells, calcium mobilization (FLIPR)
T3 construct: expressed in transfected cells; host or cells: CHO (M2-CHO)
T3 sequence (P08172 1-466): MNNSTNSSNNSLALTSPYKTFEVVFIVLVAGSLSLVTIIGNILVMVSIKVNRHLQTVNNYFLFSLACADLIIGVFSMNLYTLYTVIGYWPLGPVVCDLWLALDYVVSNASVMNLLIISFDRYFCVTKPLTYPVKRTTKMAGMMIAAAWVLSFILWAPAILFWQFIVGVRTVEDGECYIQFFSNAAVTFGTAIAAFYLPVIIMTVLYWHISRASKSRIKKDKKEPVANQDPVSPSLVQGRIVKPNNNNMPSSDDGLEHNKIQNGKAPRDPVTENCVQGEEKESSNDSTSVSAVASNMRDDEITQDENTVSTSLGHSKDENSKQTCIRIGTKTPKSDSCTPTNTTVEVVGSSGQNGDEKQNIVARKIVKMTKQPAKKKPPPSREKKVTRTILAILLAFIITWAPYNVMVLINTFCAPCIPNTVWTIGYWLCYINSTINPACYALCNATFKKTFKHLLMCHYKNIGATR
Experimental: as §1, §2, §3, §4, §5, §6

| Compound | Emax (M1 muscarinic receptor) | M1 Activity (M1 muscarinic receptor) | Emax (M4 muscarinic receptor) | M4 Activity (M4 muscarinic receptor) | Emax (M2 muscarinic receptor) | M2 Activity (M2 muscarinic receptor) |
| --- | --- | --- | --- | --- | --- | --- |
| CCOC(=O)N1C2CCC1CC(CN1CCC(c3ccccc3OC)CC1)C2 (stereo not drawn) [Compound 20] | 25 to 100% | +++ (activity was measured to be less than 1.0 μM) | 25 to 100% | +++ (activity was measured to be less than 1.0 μM) | < 25% | + (activity was measured to be greater than 5.0 μM) |
| COc1ccccc1C1CCN(CC2CC3CCC(C3)C2)CC1 (stereo not drawn) [Compound 28] | < 25% | + (activity was measured to be greater than 5.0 μM) | < 25% | + (activity was measured to be greater than 5.0 μM) | < 25% | + (activity was measured to be greater than 5.0 μM) |
| CCOC(=O)N1CCC(N2CCC(OC)(c3cc(Cl)ccc3OC)CC2)CC1 [Compound 55] | 25 to 100% | +++ (activity was measured to be less than 1.0 μM) | 25 to 100% | +++ (activity was measured to be less than 1.0 μM) | < 25% | + (activity was measured to be greater than 5.0 μM) |
| COc1ccccc1C1CCN(CC2CCC3CCC2C3)CC1 (stereo not drawn) [Compound 61] | < 25% | + (activity was measured to be greater than 5.0 μM) | 25 to 100% | ++ (activity was measured to be from 1.0 μM to 5.0 μM) | < 25% | + (activity was measured to be greater than 5.0 μM) |
| COc1ccc(Cl)cc1C1(O)CCN(C2CC3CCC2C3)CC1 (stereo not drawn) [Compound 63] | < 25% | + (activity was measured to be greater than 5.0 μM) | 25 to 100% | + (activity was measured to be greater than 5.0 μM) | < 25% | + (activity was measured to be greater than 5.0 μM) |
| COc1ccc(NC(C)=O)cc1C1CCN(C2C[C@H]3CC[C@H](C2)C3)CC1 (stereo partly drawn) [Compound 75] | < 25% | + (activity was measured to be greater than 5.0 μM) | 25 to 100% | ++ (activity was measured to be from 1.0 μM to 5.0 μM) | < 25% | + (activity was measured to be greater than 5.0 μM) |
| COc1ccc(Cl)cc1C1(OC)CCN(C2CCC3CCC2C3)CC1 (stereo not drawn) [Compound 80] | 25 to 100% | ++ (activity was measured to be from 1.0 μM to 5.0 μM) | 25 to 100% | +++ (activity was measured to be less than 1.0 μM) | < 25% | ++ (activity was measured to be from 1.0 μM to 5.0 μM) |
| Cc1ccc(F)cc1C1CCN([C@H]2CC[C@H]3CC[C@H]2C3)CC1 [Compound 81] | 25 to 100% | + (activity was measured to be greater than 5.0 μM) | 25 to 100% | ++ (activity was measured to be from 1.0 μM to 5.0 μM) | 25 to 100% | + (activity was measured to be greater than 5.0 μM) |
| COc1ccc(Cl)cc1C1CCN(CC2CCCCC2)CC1 [Compound 91] | < 25% | ++ (activity was measured to be from 1.0 μM to 5.0 μM) | 25 to 100% | ++ (activity was measured to be from 1.0 μM to 5.0 μM) | < 25% | + (activity was measured to be greater than 5.0 μM) |
| CCOC(=O)N1C2CCC1CC(N1CCC(O)(c3cc(F)ccc3C)CC1)C2 (stereo not drawn) [Compound 95] | 25 to 100% | +++ (activity was measured to be less than 1.0 μM) | 25 to 100% | +++ (activity was measured to be less than 1.0 μM) | < 25% | + (activity was measured to be greater than 5.0 μM) |
| Cc1ccc(Cl)cc1C1CCN(C2CC[C@H]3CC[C@H]2C3)CC1 (stereo partly drawn) [Compound 96] | 25 to 100% | +++ (activity was measured to be less than 1.0 μM) | 25 to 100% | +++ (activity was measured to be less than 1.0 μM) | 25 to 100% | ++ (activity was measured to be from 1.0 μM to 5.0 μM) |

From patent publication US7880007B2, “Bicyclic substituted phenyl piperidine modulators of muscarinic receptors” (Vertex Pharmaceuticals Incorporated, priority 2004, dated 2011)
